We go through two compounds from article PMC3733996 (Bioorganic & medicinal chemistry letters, 2013).

This test deals with serotonin transporter (SERT) (Rattus norvegicus, UniProt P31652). In words: Displacement of [3H]citalopram from serotonin transporter in rat brain tissue. The class given is binding. Particulars: ratio of Ki DAT / Ki SERT.
Chain of serotonin transporter (SERT) (P31652 whole entry): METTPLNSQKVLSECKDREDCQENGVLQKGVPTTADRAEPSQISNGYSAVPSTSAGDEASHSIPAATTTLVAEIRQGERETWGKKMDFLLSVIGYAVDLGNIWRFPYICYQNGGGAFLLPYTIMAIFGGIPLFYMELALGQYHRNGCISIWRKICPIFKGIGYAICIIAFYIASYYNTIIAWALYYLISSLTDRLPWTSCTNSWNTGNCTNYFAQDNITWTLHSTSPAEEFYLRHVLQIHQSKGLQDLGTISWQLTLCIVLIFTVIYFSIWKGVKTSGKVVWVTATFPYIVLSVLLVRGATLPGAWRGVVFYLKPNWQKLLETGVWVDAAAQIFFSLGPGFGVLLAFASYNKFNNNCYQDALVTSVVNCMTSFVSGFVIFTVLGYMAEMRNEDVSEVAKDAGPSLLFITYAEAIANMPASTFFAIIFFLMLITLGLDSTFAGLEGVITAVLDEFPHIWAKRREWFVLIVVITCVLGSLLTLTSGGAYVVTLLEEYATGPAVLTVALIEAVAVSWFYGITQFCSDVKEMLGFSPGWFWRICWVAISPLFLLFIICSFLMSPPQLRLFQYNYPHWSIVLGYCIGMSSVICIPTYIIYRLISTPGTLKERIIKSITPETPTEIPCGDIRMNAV

On to `Cl.Clc1ccc(COC2(c3ccc(Cl)cc3)CNC2)cc1` [6e], for which the DAT/SERT was 1,100. Turning to `Cl.Clc1ccc(COC2(c3ccc(Cl)c(Cl)c3)CNC2)cc1` [6h], the DAT/SERT was 1,000.
